According to patent US8697874B2, “Heterocyclic compound and use thereof” (Takeda Pharmaceutical Company Limited, priority 2008, dated 2014):
Each block holds one compound with its values, some of them ahead of it.

Key:
[1] = molecular target: T1, BRAF (V600E) kinase (Homo sapiens, UniProt P15056, V600E); test: Determination of BRAF (V600E) kinase inhibitory activity; type: biochemical; conditions: compound 1.0 μm; substrate GSTP1-MEK1 (K96R), [γ-32P]ATP
T1 construct: area encoding the BRAF kinase domain region, so that the protein contains an N-terminal Flag; made in house; host or cells: SF-21 insect cells infected with recombinant baculovirus BAC-V600E
Procedure: Determination of BRAF (V600E) Kinase Inhibitory Activity
A test compound (2.5 μL) dissolved in dimethyl sulfoxide (DMSO) was added to 37.5 μL of a reaction solution (25 mM HEPES (pH 7.5), 10 mM magnesium acetate, 1 mM dithiothreitol) containing 30 ng of BRAF (V600E) enzyme and 250 ng of recombinant protein GSTP1-MEK1 (K96R) prepared using FreeStyle 293 expression system (Invitrogen), and the mixture was incubated at room temperature for 10 min. 10 μL of ATP solution (2.5 μM ATP, 0.1 μCi [γ-^32P]ATP) was added to the obtained mixture, and the mixture was reacted at room temperature for 20 min. The reaction was quenched by adding 50 μL of ice-cooled 20% trichloroacetic acid (Wako Pure Chemical Industries, Ltd.) to the reaction solution. The reaction solution was allowed to stand at 4° C. for 30 min., and the acid-precipitable fraction was transferred to GF/C filter plate (Millipore Corporation) using cell harvester (PerkinElmer). The plate was dried at 45° C. for 60 min., and 40 μL of MicroScinti 0 (PerkinElmer) was added thereto. The radioactivity was measured using TopCount (PerkinElmer). The kinase inhibitory rate (%) of the test compound was calculated by the following formula: Inhibitory rate (%)=(1−(count of test compound−blank)÷(control−blank))×100
The count of the solution reacted without addition of the compound was used as a “control”, and the count of the solution without the compound and enzyme was used as a “blank”.

[2] = system: MEK1/2 phosphorylation in human colorectal cancer cell HT-29; test: Colorectal cancer cell HT-29 intracellular MEK phosphorylation inhibitory activity in vitro; type: cell-based; conditions: HT-29 cells; for IC50: 2 hrs treatment, phosphorylated MEK1/2 by Western blot; for inhibition at 0.5 µM: MEK1/2 protein phosphorylation, compound 0.5 μM, 2 hrs, read-out: inhibitory rate (%) at 0.5 μM
Procedure: Colorectal Cancer Cell HT-29 Intracellular MEK Phosphorylation Inhibitory Activity In Vitro
500 μL of a cell suspension of human colorectal cancer cell HT-29 (purchased from American Type Culture Collection (ATCC)) was plated in a 48-well plate (100,000 cells/well), and the cells were cultured overnight at 37° C. in the presence of 5% CO2, treated with a test compound (250 μL/well) diluted in 3-fold dilution series and cultured for 2 hrs. After 2 hrs, the culture medium containing the test compound was removed, and the cells were lysed with SDS sample buffer (100 μL/well) and heated at 95° C. for 5 min. Thereafter, the cells lysed with SDS sample buffer were applied to SDS-PAGE, and the protein was transferred onto Sequi-Blot™ PVDF Membrane (Bio-Rad) by the Western blot method. The PDVF membrane was blocked with a Block-Ace solution (Snow Brand Milk Products Co., Ltd) dissolved in phosphate buffered saline (MP Biochemicals) to 5% W/V, and reacted overnight with anti-phosphorylated MEK1/2 (Ser217/221) (Cell signaling) diluted 1000-fold with phosphate buffered saline containing 0.4% Block-Ace. The membrane was washed with phosphate buffered saline containing 0.1% Tween 20 (Wako Pure Chemical Industries, Ltd.), and reacted at room temperature for 1 hr with HRP labeled rabbit IgG polyclonal antibody (Cell signaling) diluted 1000-fold with phosphate buffered saline containing 0.4% Block-Ace. The membrane was washed in the same manner as above, chemical luminescence of a phosphorylated MEK1/2 protein labeled with the antibody, which was caused by ECL-plus Detection Reagent (Amersham bioscience), was detected by Luminescent Image Analyzer LAS-1000 (FUJIFILM Corporation). Taking the luminescence of the control group free of the test compound as 100%, the concentration (IC50 value) of the compound necessary for inhibiting the residual luminescence to 50% of the control group was calculated. The results are shown in Table 3-A. In addition, MEK1/2 protein phosphorylation inhibitory rate (%) of the test compound at compound concentration 0.5 μM was calculated by the following formula. The results are shown in Table 3-B. Inhibitory rate (%)=(1−(luminescence of test compound−blank)÷(luminescence of control group−blank))×100

[3] = system: human colorectal cancer cell HT-29; test: Colorectal cancer cell HT-29 growth suppressive activity in vitro; type: cell-based; conditions: 72 h, HT-29 cells, SRB staining; for IC50: 3 days culture; for inhibition at 5 µM: cell proliferation, compound 5.0 μM, 3 days, read-out: inhibitory rate (%) at 5.0 μM
Procedure: Colorectal Cancer Cell HT-29 Growth Suppressive Activity in Vitro
100 μL of a cell suspension (3,000 cells/well) of human colorectal cancer cell HT-29 (purchased from ATCC) was plated in a 96-well plate, and the cells were cultured at 37° C. in a 5% CO2 gas incubator. The next day, 100 μL of each test compound solution diluted in 2-fold serial dilution, diluted from maximum concentration 20 μM, was added, and the cells were cultured for 3 days. As for Example 44, 100 μl of each test compound solution (4-fold serially diluted, diluted from maximum concentration 20 μM) was added, and the cells were cultured for 3 days. The culture medium containing the test compound was removed, and the cells were washed with phosphate buffered saline (PBS). A 50% trichloroacetic acid solution was added to the final concentration of 10% (v/v), and the mixture was stood overnight at 4° C., whereby the cells were fixed to the plate. Then, a dye SRB 0.4% (w/v) solution (dissolved in 1% acetic acid) was added at 50 μl/well, whereby the cell protein was fixed and stained (Skehan et al., Journal Of National Cancer Institute, vol. 82, pp. 1107-1112, 1990). The cells were washed 3 times with 1% acetic acid solution (200 μL/well), and 100 μL of an extract (10 mM Tris buffer) was added to extract the dye. The absorbance at an absorption wavelength 550 nm was measured, and cell amount was measured as a protein amount. Taking the protein amount of the control group free of the test compound solution as 100%, the proportion of the residual protein amount of each treatment group was determined and the concentration of the compound necessary for suppressing the residual cell amount to 50% of the control (IC50 value) was calculated. The results are shown in Table 4-A. In addition, cell proliferation inhibitory rate (%) of the test compound at compound concentration 5.0 μM was calculated by the following formula. The results are shown in Table 4-B. Inhibitory rate (%)=(1−(absorbance of test compound−blank)÷(absorbance of control group−blank))×100

T1 sequence (P15056 457-717 V600E limits assumed): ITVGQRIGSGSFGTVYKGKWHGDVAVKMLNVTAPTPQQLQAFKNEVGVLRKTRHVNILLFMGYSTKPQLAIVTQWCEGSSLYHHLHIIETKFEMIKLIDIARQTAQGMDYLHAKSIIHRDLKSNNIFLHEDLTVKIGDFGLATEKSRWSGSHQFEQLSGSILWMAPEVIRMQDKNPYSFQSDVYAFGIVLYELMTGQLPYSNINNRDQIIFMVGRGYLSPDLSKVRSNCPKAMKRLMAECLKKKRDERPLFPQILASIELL

SMILES: CN(c1ccc(F)c(NC(=O)Nc2ccc(C(F)(F)F)cc2)c1)c1ccc2nc(NC(=O)C3CC3)sc2n1 [Example 1, N-(5-{[4-fluoro-3-({[4-(trifluoromethyl)phenyl]carbamoyl}amino)phenyl](methyl)amino}[1,3]thiazolo[5,4-b]pyridin-2-yl)cyclopropanecarboxamide]
- inhibitory rate (%) at 1.0 μm [1]: 98%

SMILES: CN(c1ccc(F)c(NC(=O)Nc2ccc(C(C)(C)C)cc2)c1)c1ccc2nc(NC(=O)C3CC3)sc2n1 [Example 3, N-{5-[(3-{[(4-tert-butylphenyl)carbamoyl]amino-}-4-fluorophenyl)(methyl)amino][1,3]thiazolo[5,4-b]pyridin-2-yl}cyclopropanecarboxamide]
- IC50 [2]: < 300 nM
- inhibition at 0.5 µM [2]: 94%

SMILES: CN(c1cccc(NC(=O)Nc2ccc(OC(F)(F)F)cc2)c1)c1ccc2nc(NC(=O)C3CC3)sc2n1 [Example 9, N-(5-{methyl[3-({[4-(trifluoromethoxy)phenyl]carbamoyl}amino)phenyl]amino}[1,3]thiazolo[5,4-b]pyridin-2-yl)cyclopropanecarboxamide]
- IC50 [3]: < 500 nM
- inhibition at 5 µM [3]: 100%

SMILES: CN(c1cccc(NC(=O)Nc2ccc(Cl)c(C(F)(F)F)c2)c1)c1ccc2nc(NC(=O)C3CC3)sc2n1 [Example 11, N-(5-{[3-({[4-chloro-3-(trifluoromethyl)phenyl]carbamoyl}amino)phenyl](methyl)amino}[1,3]thiazolo[5,4-b]pyridin-2-yl)cyclopropanecarboxamide]
- inhibitory rate (%) at 1.0 μm [1]: 99%

SMILES: O=C(Nc1ccc(Cl)c(C(F)(F)F)c1)Nc1cc(Nc2ccc3nc(NC(=O)C4CC4)sc3n2)ccc1F [Example 13, N-(5-{[3-({[4-chloro-3-(trifluoromethyl)phenyl]carbamoyl}amino)-4-fluorophenyl]amino}[1,3]thiazolo[5,4-b]pyridin-2-yl)cyclopropanecarboxamide]
- IC50 [2]: < 300 nM
- inhibition at 0.5 µM [2]: 98%

SMILES: O=C(Cc1ccccc1C(F)(F)F)Nc1cc(Oc2ccc3nc(NC(=O)C4CC4)sc3n2)ccc1F [Example 19, N-{5-[4-fluoro-3-({[2-(trifluoromethyl)phenyl]acetyl}amino)phenoxy][1,3]thiazolo[5,4-b]pyridin-2-yl}cyclopropanecarboxamide]
- inhibitory rate (%) at 1.0 μm [1]: 100%

SMILES: O=C(Cc1cccc(C(F)(F)F)c1)Nc1cc(Oc2ccc3nc(NC(=O)C4CC4)sc3n2)ccc1F [Example 22, N-{5-[4-fluoro-3-({[3-(trifluoromethyl)phenyl]acetyl}amino)phenoxy][1,3]thiazolo[5,4-b]pyridin-2-yl}cyclopropanecarboxamide]
- inhibition at 0.5 µM [2]: 88%

More lines, main results first:

- inhibitory rate (%) at 1.0 μm [1]: 98%
SMILES: O=C(Cc1ccc(C(F)(F)F)cc1)Nc1cc(Oc2ccc3nc(NC(=O)C4CC4)sc3n2)ccc1F [Example 21, N-{5-[4-fluoro-3-[{(4-(trifluoromethyl)phenyl]acetyl}amino)phenoxy][1,3]thiazolo[5,4-b]pyridin-2-yl}cyclopropanecarboxamide]

- IC50 [2]: < 300 nM
SMILES: O=C(Nc1cccc(C(F)(F)F)c1)Nc1cc(Oc2ccc3nc(NC(=O)C4CC4)sc3n2)ccc1F [Example 23, N-{5-[4-fluoro-3-({[3-(trifluoromethyl)phenyl]carbamoyl}amino)phenoxy][1,3]thiazolo[5,4-b]pyridin-2-yl}cyclopropanecarboxamide]
- inhibition at 0.5 µM [2]: 88%

- IC50 [3]: < 500 nM
SMILES: O=C(Nc1ccc(C(F)(F)F)nc1)Nc1cc(Oc2ccc3nc(NC(=O)C4CC4)sc3n2)ccc1F [Example 29, N-{5-[4-fluoro-3-({[6-(trifluoromethyl)pyridin-3-yl]carbamoyl}amino)phenoxy][1,3]thiazolo[5,4-b]pyridin-2-yl}cyclopropanecarboxamide]
- inhibition at 5 µM [3]: 74%

- IC50 [3]: < 500 nM
SMILES: Cc1ccc(NC(=O)Cc2ccsc2)cc1Oc1ccc2nc(NC(=O)C3CC3)sc2n1 [Example 44, N-(5-{2-methyl-5-[(thiophen-3-ylacetyl)amino]-phenoxy} [1,3]thia-zolo[5,4-b]pyridin-2-yl)cyclo-propanecarboxamide]
- inhibition at 5 µM [3]: 98%
